# Publication PMC2827632 (Biochemistry, 2010)
# What was measured:
# Mtb Lpd R347S = Mtb Lpd R347S (Mycobacterium tuberculosis, UniProt P9WHH9, R347S)
# Mtb Lpd A181V = Mtb Lpd A181V (Mycobacterium tuberculosis, UniProt P9WHH9, A181V); settings: 100 µM
structure (smiles),measurement,setting,value
"COc1ccc(C(=O)N2CCC3(CC2)C(=O)N(CC(=O)NCCc2ccc(Cl)cc2Cl)CN3c2ccccc2)c(OC)c1 [compound 5, N-(2,4-dichlorophenethyl)-2-(8-(2,4-dimethoxybenzoyl)-4-oxo-1-phenyl-1,3,8-triazaspiro[4.5]decan-3-yl)acetamide]","Decrease in potency, R347S vs wild-type",Mtb Lpd R347S,more than 100 fold
same,Inhibition of A181V Mtb Lpd,Mtb Lpd A181V,10%
